Laboratory results: publication PMC8091729 (Bioorganic & Medicinal Chemistry Letters, 2021)

Experiments:
SARS-CoV-2 = experiment: Image-based antiviral assay; format: cell-based; conditions: CC50/EC50
COVID-19 = conditions: patients with COVID-19; cited from earlier work

Row | Structure (SMILES) | selectivity index (SARS-CoV-2) | benefit in clinical trials (COVID-19) [%]
1 | O=C(Cn1c2ccccc2n2c(=O)cc(-c3ccc(Cl)cc3)nc12)Nc1ccc(F)cc1F [Compound 7] | more than 10 | 
2 | CCC(CC)COC(=O)[C@H](C)N[P@](=O)(OC[C@H]1O[C@@](C#N)(c2ccc3c(N)ncnn23)[C@H](O)[C@@H]1O)Oc1ccccc1 [Remdesivir] |  | 68
